Experimental data published in PubChem BioAssay (NCI).
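The compound was tested at five concentrations on cells cultured in 96-well plates, with a 48-hour exposure period. Definition used: TGI = concentration required for complete inhibition of growth.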

Columns and labels:
Test in all cases: NCI-60 cell line screen, 48 h
[1] = tested on: 786-0 renal
[2] = tested on: A498 renal
[3] = tested on: A549 NSCLC
[4] = tested on: ACHN renal
[5] = tested on: BT-549 breast
[6] = tested on: CAKI-1 renal
[7] = tested on: CCRF-CEM leukemia
[8] = tested on: COLO 205 colon
[9] = tested on: DU-145 prostate
[10] = tested on: EKVX NSCLC
[11] = tested on: HCC-2998 colon
[12] = tested on: HCT-116 colon
[13] = tested on: HCT-15 colon
[14] = tested on: HL-60(TB) leukemia
[15] = tested on: HOP-62 NSCLC
[16] = tested on: HS 578T breast
[17] = tested on: HT29 colon
[18] = tested on: IGROV1 ovarian
[19] = tested on: K-562 leukemia
[20] = tested on: KM12 colon
[21] = tested on: LOX IMVI melanoma
[22] = tested on: M14 melanoma
[23] = tested on: MALME-3M melanoma
[24] = tested on: MCF7 breast
[25] = tested on: MDA-MB-435
[26] = tested on: MDA-N
[27] = tested on: MOLT-4 leukemia
[28] = tested on: NCI-H226 lung
[29] = tested on: NCI-H23 lung
[30] = tested on: NCI-H460 lung
[31] = tested on: NCI-H522 lung
[32] = tested on: NCI/ADR-RES ovarian
[33] = tested on: OVCAR-3 ovarian
[34] = tested on: OVCAR-4 ovarian
[35] = tested on: OVCAR-5 ovarian
[36] = tested on: OVCAR-8 ovarian
[37] = tested on: PC-3 prostate
[38] = tested on: RPMI-8226 leukemia
[39] = tested on: RXF 393 renal
[40] = tested on: SF-268 CNS
[41] = tested on: SF-295 CNS
[42] = tested on: SF-539 CNS
[43] = tested on: SK-MEL-2 melanoma
[44] = tested on: SK-MEL-28 melanoma
[45] = tested on: SK-MEL-5 melanoma
[46] = tested on: SN12C renal
[47] = tested on: SNB-19 CNS
[48] = tested on: SNB-75 CNS
[49] = tested on: SR leukemia
[50] = tested on: SW-620 colon
[51] = tested on: T-47D breast
[52] = tested on: TK-10 renal
[53] = tested on: U251 CNS
[54] = tested on: UACC-257 melanoma
[55] = tested on: UACC-62 melanoma
[56] = tested on: UO-31 renal
[57] = tested on: HOP-92 NSCLC
[58] = tested on: MDA-MB-231 breast
[59] = tested on: SK-OV-3 ovarian

Measured: TGI

O=C(O)c1ccccc1/C=C1\Cc2ccccc2C1=O
not listed: [57] | [58] | [59]
> 100 µM: all other assays above

O=C(O)CCC[C@]1(O)O[C@@]2(CCCC2=O)[C@]2(O)CCC[C@@]21O
0.228 µM: [31]
64.4 µM: [41]
not listed: [7] | [11] | [25] | [59]
> 100 µM: all other assays above

CC(=O)O[C@H]1C(=O)[C@@]2(C)[C@H]([C@H](OC(=O)C3CCCCC3)[C@]3(O)C[C@H](OC(=O)[C@H](O)[C@@H](NC(=O)OC(C)(C)C)c4ccccc4)C(C)=C1C3(C)C)[C@]1(OC(C)=O)CO[C@@H]1C[C@@H]2O
0.22 µM: [31]
> 9.76 µM: [29]
0.0571 µM: [42]
0.144 µM: [8]
> 6.31 µM: [58]
5.07 µM: [23]
> 2.47 µM: [55]
> 6.33 µM: [17]
> 9.82 µM: [44]
> 11.5 µM: [46]
0.46 µM: [5]
0.019 µM: [33]
0.741 µM: [16]
> 4.97 µM: [12]
0.117 µM: [22]
0.0701 µM: [35]
> 7.61 µM: [1]
> 5.94 µM: [32]
0.337 µM: [27]
> 3.99 µM: [45]
0.165 µM: [41]
0.432 µM: [38]
0.575 µM: [57]
0.248 µM: [11]
> 10.1 µM: [52]
0.00365 µM: [14]
2.15 µM: [39]
0.0879 µM: [24]
5.15 µM: [43]
> 8.82 µM: [7]
> 11.9 µM: [21]
> 5.2 µM: [30]
0.0173 µM: [26]
not listed: [2] | [9] | [15] | [25]
> 12.5 µM: all other assays above

O=c1ccc2[n+]([O-])c3ccc(O)cc3oc-2c1
> 64 µM: [49]
> 85.2 µM: [52]
22.6 µM: [44]
38.7 µM: [30]
26 µM: [54]
30.1 µM: [8]
> 80.3 µM: [33]
> 40.7 µM: [48]
36.7 µM: [46]
27.2 µM: [1]
31.5 µM: [43]
> 73 µM: [7]
11.4 µM: [29]
56.6 µM: [35]
67.5 µM: [32]
30.8 µM: [9]
48 µM: [50]
> 37.7 µM: [4]
67 µM: [15]
18.3 µM: [23]
> 54.1 µM: [16]
> 66.8 µM: [14] | [28]
57 µM: [27]
3.37 µM: [26]
> 47.9 µM: [13]
18.8 µM: [24]
97 µM: [34]
36.6 µM: [31]
13.8 µM: [21] | [45]
> 87 µM: [38]
8 µM: [56]
20.6 µM: [3]
> 91.6 µM: [36]
7.35 µM: [55]
25.4 µM: [22]
25.9 µM: [5]
> 92.3 µM: [58]
53.9 µM: [17]
21.6 µM: [41]
not listed: [25] | [47]
> 100 µM: all other assays above

CS(=O)(=O)c1ccc(NNc2cc(=O)[nH]c(=O)[nH]2)cc1
40.2 µM: [31]
9.34 µM: [52]
not listed: [6] | [10] | [24] | [25] | [36]
> 100 µM: all other assays above
